The values below come from patent US20260315446A1, “ANTIFUNGAL COMPOUNDS AND USES THEREOF” (priority 2023, published 2026).

Series [1] deals with C. neoformans growth versus IL-2 in murine T cells. Kind of series: Therapeutic index score (immunosuppressive fold change to antifungal fold change relative to FK506). On the set-up: species or system Cryptococcus neoformans; mouse. The following applies: Example 3; C. neoformans H99, FK506 = 1.0. From the text: To assess the therapeutic potential for these compounds, it was important to develop an approach to score and rank them based on antifungal and immunosuppressive activities. The therapeutic index score (TIscore) is a ratio of the immunosuppressive fold change to the antifungal fold change, with all values relative to the baseline FK506 activity (FIG. 6B). A TIscore of >1.0 indicates an increase in fungal specificity because the fold change of the immunosuppressive reduction is greater than the antifungal activity reduction. As an example, JH-FK-05 is 20-fold reduced for antifungal activity but about 180-fold reduced for immunosuppression. Therefore, the TIscore of JH-FK-05 is 9.1 (TIscore=182/20). The top two analogs were JH-FK-02 (TIscore=9.7) and JH-FK-05 (TIscore=9.1). Due to the similar TIscore, JH-FK-05 was prioritized to advance to animal trials on the merit of more pronounced antifungal activity compared to JH-FK-02.
Based on the in vitro fungal and mammalian calcineurin inhibition data, the panel of FK520 analogs was assessed and ranked. Therapeutic index (TI) scores were used to quantify the effects of structural modification on the compounds (Table 8). Therapeutic index scores were calculated for each analog as the ratio of relative change in immunosuppressive and antifungal activities compared to FK506 as previously utilized (see, I-Toy M J, et at. 2022. mBio 13:e0104922). This ratio of therapeutic benefit and host toxicity, or fungal and mammalian calcineurin inhibition, allowed us to quantify and rank these analogs. […] This is the greatest TI found within the library and allowed us to identify JH-FK-08 as a lead candidate for an in vivo study. Tolerability of JH-FK-08 was assessed by monitoring animal responses to drug dosing across 14 days, including changes in weight, fur condition, and behavior. A maximum dose of 40 mg/kg was tested in once a day dosing, and due to solubility limitations, the tolerability of JH-FK-08 at 60 and 80 mg/kg total daily doses was assessed by dosing two equal doses per day (FIG. 14). […] It should be noted that analogs JH-FK-12 and JH-FK-23 are also promising candidates with respective Tis of 24.7 and 24.5.

In series [2] the test system is Candida albicans. Put plainly: MIC assay (Example 3). Format: cell-based. The following applies: Candida albicans, SC5314; MIC80, 30° C. with 2 μg/mL fluconazole; read-out: MIC against Candida albicans (SC5314). The procedure:
(§1) In vitro antifungal activity was assessed for all fungal strains in RPMI 1640 (Sigma-Aldrich R1383). MICs were measured using Clinical and Laboratory Standards Institute (CLSI) M38-A2 and M27-A3 standard in vitro antifungal susceptibility protocols. C. neoformans and A. fumigatus testing was performed at 37° C. MECs for A. fumigatus were recorded after 48 h of growth. C. albicans testing was performed at 30° C. with a uniform concentration of 2 μg/mL of fluconazole to sensitize the cells to calcineurin inhibition.
(§2) C. neoformans clinical isolate H99 and congenic-derived strain KN99α were used (see, Nielsen K, et al., 2003. Infect Immun 71:4831-4841). KN99α-derived frr1Δ deletion mutants with nourseothricin resistance markers as part of the Madhani deletion collection (NIH funding R01AI100272) were used. C. deneoformans strains used include JEC21 and derived C21F2 (CNB1-1) and C21F3 (frr1-3) strains (see, Odom A, et al., 1997. EMBO J 16:2576-2589; Moore T D, Edman J C. 1993. Mol Cell Biol 13:1962-1970; Fox D S, et al., 2001. Mol Microbiol 39:835-849). C. albicans strain SC5314 is the wild-type strain from which mutants YAG171 (rbp1/rbp1) and YAG237 (CNB1-1/CNB1) were derived (see, Cruz M C, et al., 2001. Antimicrob Agents Chemother 45:3162-3170). A. fumigatus strain akuB^Ku80 and a derived FKBP12 mutant fkbp12A were used during antifungal screening (see, Falloon K, et al., 2015. PLoS One 10:e0137869).

Series [3] relates to Cryptococcus neoformans. Kind of series: MIC assay (Example 3). In kind it is cell-based. The following applies: Cryptococcus neoformans. As for the experimental part:
as §1, §2

Series [4] deals with IL-2 expression in primary mouse CD4+ T cells (mammalian calcineurin). Put plainly: In vitro immunosuppressive activity, IL-2 expression (Example 3). In kind it is cell-based. The following applies: 72 h. As for the experimental part:
Modifications at the C-22 position reduce inhibition of mammalian calcineurin signaling Mammalian calcineurin inhibition was then assessed and found to be reduced for these FK520 analogs. The inhibition of mammalian calcineurin was assessed by measuring the reduction of IL-2 expression from primary mouse CD4^+ T cells cultured in the presence of FK506, FK520, or an analog. Calcineurin activity is required for T cell activation and cytokine production, and IL-2 production serves as an effective measure of mammalian calcineurin activity. After culturing mouse CD4′ T cells for 72 h, IL-2 expression was analyzed by flow cytometry to evaluate the immunosuppressive activity of the analogs. […] However, compound concentrations that permit high IL-2 expression are less likely to result in cell death.
Spleen and lymph nodes from C57BL/6 mice were collected and homogenized through a 40-μm filter. Pan-CD4^+ T cells were enriched using the MagniSort Mouse CD4 T Cell Enrichment Kit (Invitrogen). Thereafter, CD4^+CD25^−CD62L^hiCD44^lo naïve CD4^+ T cells were FACS-sorted using a MoFlo Astrios cell sorter (Beckman Coulter). Naïve CD4^+ T cells were cultured in Iscove's Modified Dulbecco's Medium supplemented with 10% fetal bovine serum (FBS), penicillin (10 U/mL), streptomycin (10 μg/mL), glutamine (2 mM), gentamicin (50 μg/mL), and β-mercaptoethanol (55 μM). Cells were cultured for 72 h on anti-hamster IgG-coated plates with hamster anti-CD3s antibodies, hamster anti-CD28 antibodies, neutralizing anti-IL-4 antibodies, recombinant IL-12 (10 ng/mL), and recombinant IL-2 (50 U/mL). During this culture, cells were incubated with serially diluted drugs suspended in DMSO.

Series [5] can be described thus: Solubility in microdilution broth assays. Format: physicochemical. The procedure:
FIG. 12: Low-solubility compounds in MIC assay. Representative image of MIC assay read by plate reader with growth indicated on a range from 0.04 to 0.1 OD, black to green coloration. Starting concentration 50 μg/mL for all drugs. (A) H99 cultured in wells, and (B) wells contain RPMI media and no fungal cells with green coloration indicative of false positive growth caused by drug insolubility.
To assess antifungal activity, the panel of compounds was tested for fungal growth inhibition using minimum inhibitory concentration (MIC) assays against C. neoformans and C. albicans and minimum effective concentration (MEC) assays against A. fumigatus. […] MEC values against A. fumigatus ranged from 0.6 to 2.5 μg/mL for 10 of the analogs tested. […] Overall, a majority of these analogs maintain relatively potent antifungal activity across species and represent an active library for further investigation.
(Dilution methods test growth across graded concentrations, often in twofold steps.)

The subject of series [6] is Aspergillus fumigatus. Kind of series: MEC assay (Example 3). The note with it: strain akuB^Ku80.
The test system of series [7] is cryptococcosis. The following applies: cited from earlier work.
Where [8] appears, read: MIC90, 37° C., read-out: MIC against Cryptococcus neoformans (H99).

pIC50: −log10 of the molar value. ≈ marks a conversion by molar mass, not a printed value. Where two headings read alike, the source gives them in different places.

One may read the pIC50 as the negative decadic logarithm of the IC50, by convention in mol/L. As to `CC[C@@H]1/C=C(\C)C[C@H](C)C[C@H](OC)[C@H]2O[C@@](O)(C(=O)C(=O)N3CCCC[C@H]3C(=O)O[C@H](/C(C)=C/C3CC[C@@H](O)[C@H](OC)C3)[C@H](C)[C@@H](O)C/C1=N/NC(=O)c1ccc3ccccc3c1)[C@H](C)C[C@@H]2OC` (stereo partly shown) [JH-FK-15], the Therapeutic index in series [1] was 3.1. Further, the MIC in series [2] was 0.4 µg/mL (≈ 0.417 µM); in series [3] (setting [8]), 3.1 µg/mL (≈ 3.23 µM); in series [3] (Table 8, read-out: H99 MIC90), 3.1 µg/mL (≈ 3.23 µM). The pIC50 in series [4] is 7.76. For the same compound, the “solubility during microdilution broth assays” value in series [5] is “exhibited solubility issues”. Also, the “MEC against Aspergillus fumigatus (akuB^Ku80)” value in series [6] came to 0.3 µg/mL.

Turning to `C=CC[C@@H]1/C=C(\C)C[C@H](C)C[C@H](OC)[C@H]2O[C@@](O)(C(=O)C(=O)N3CCCC[C@H]3C(=O)O[C@H](/C(C)=C/[C@@H]3CC[C@@H](O)[C@H](OC)C3)[C@H](C)[C@@H](O)CC1=NNC(C)=O)[C@H](C)C[C@@H]2OC` [JH-FK-01], the “interaction with fluconazole in pulmonary cryptococcosis model” value in series [7] (in vivo combination therapy with fluconazole) is listed as “benefits from this synergistic interaction”. Further, in series [7] (in vivo), the “fungal burden in animal model of cryptococcosis” value is listed as “significantly reduced fungal burden”.

Regarding `CC[C@@H]1/C=C(\C)C[C@H](C)C[C@H](OC)[C@H]2O[C@@](O)(C(=O)C(=O)N3CCCC[C@H]3C(=O)O[C@H](/C(C)=C/C3CC[C@@H](O)[C@H](OC)C3)[C@H](C)[C@@H](O)C/C1=N/NC(=O)c1ccc(F)cc1)[C@H](C)C[C@@H]2OC` (stereo partly shown) [JH-FK-17], the Therapeutic index in series [1] is 13.1. Also, the MIC in series [2] came out at 0.4 µg/mL (≈ 0.431 µM); in series [3] (setting [8]), 0.4 µg/mL (≈ 0.431 µM); in series [3] (Table 8, read-out: H99 MIC90), 0.4 µg/mL (≈ 0.431 µM). Also, in series [4], the pIC50 is 8.03. In addition, the “solubility during microdilution broth assays” value in series [5] is “exhibited solubility issues”. Moreover, the “MEC against Aspergillus fumigatus (akuB^Ku80)” value in series [6] came to 1.3 µg/mL.

In the case of `CC[C@@H]1/C=C(\C)C[C@H](C)C[C@H](OC)[C@H]2O[C@@](O)(C(=O)C(=O)N3CCCC[C@H]3C(=O)O[C@H](/C(C)=C/C3CC[C@@H](O)[C@H](OC)C3)[C@H](C)[C@@H](O)C/C1=N/NS(=O)(=O)c1ccc(C)cc1)[C@H](C)C[C@@H]2OC` (stereo partly shown) [JH-FK-13], the MIC in series [3] (Table 8, read-out: H99 MIC90) is above 50 µg/mL. In series [4], the pIC50 was below 6.70. For the same compound, the “solubility during microdilution broth assays” value in series [5] is “exhibited solubility issues”.
